One data set concerns the target recombinant human DHODH (Homo sapiens, UniProt Q02127). Kind of data set: Inhibition assay of DHODH activity (DHO-driven reduction of DCIP). Format: biochemical. How it is done: Inhibition of recombinant human DHODH was assayed by the dihydroorotate (DHO) driven reduction of dichloroindophenol (DCIP), (Bruneau et al., 1998). The standard assay mixture contained 0.4 μg/mL recombinant protein, 50 mM Tris pH8, 100 μM decylubiquinone, 1 mM KCN, 200 μM DCIP and 0.1% Triton X-100. Inhibitory compounds were added at 10 different concentrations and the enzyme reaction initiated by the addition of 500 μM DHO. The reaction was allowed to continue for 10 minutes before the reduction of DCIP was measured in a microtiterplate reader as a decrease in absorbance at 650 nm. The IC50 values (concentration of inhibitor required for 50% inhibition) for each compound were calculated from the obtained dose response curves.

In data set [1] the test system is human T lymphoblast cell line (Jurkat). Briefly: Inhibition of T-cell proliferation (3H-TdR incorporation). Format: cell-based. The note with it: Jurkat cells; for IC50: 3 days, read-out: Inhibition of T-cell proliferation in vitro. IC50. Here is the method:
Inhibition of T cell proliferation was studied in a functional assay. A human T lymphoblast cell line (Jurkat) was cultured in the presence and absence of DHODH inhibiting compounds. Jurkat cells were seeded in microtiterplates at a concentration of 5×10^5/mL in RPMI 1640 growth media supplemented with ultraglutamin, 10% fetal calf serum, 1 mM sodium pyruvat, 10 mM HEPES and 0.1 mg/mL gentamycin. A dilution series of ten different concentrations of inhibitor was added to the wells and the plates were kept in a cell incubator for 3 days. At the beginning of the last 4 hours period, the cultures were pulsed with 10 μl/well 0.1Ci/mmol ^3H-TdR and then harvested on filter papers and counted with a β-counter. The IC50 values for each compound were calculated from the obtained dose response curves. Adding 50 μM uridine to the wells monitored the specificity for the mechanism. This reverses the antiproliferative effect by bypassing the DHODH enzyme using an external source of pyrimidine.
Inhibition of T cell proliferation was studied in a functional assay. Table 1 exemplifies the invention, without limiting the scope thereof. A human T lymphoblast cell line (Jurkat) was cultured in the presence of the compound to be screened. The IC50 value for each compound was calculated from the dose response curve. Adding uridine was used to monitor the specificity of the DHODH mechanism.

Data set [2] is described as follows: Determination of pharmacokinetic properties in the mouse (cassette dosing). Format: in vivo. The note with it: female, SJL/N Tac, plasma, iv, i.v. administration, nominal dose 1 mg/kg/compound. How it is done: Female mice (SJL/N Tac) were given a single intravenous or oral dose of a mixture of 4 or 6 compounds per cassette (nominal dose: 1 mg/kg/compound). The test items were formulated in physiological saline/5% Cremophor® to a final concentration of each 0.1 mg/mL. Blood samples were collected from vena cava (terminal bleed) into sodium heparinised tubes. The dose formulations and plasma concentrations of each compound were determined by LC-MS/MS. The pharmacokinetic parameters were determined by non-compartmental analysis using WinNonlin Professional (version 4.0.1).
The clearance (CL) and half-life (t1/2) of representative compounds in the mouse following i.v. administration are shown in Table 2. Table 2 exemplifies the invention, without limiting the scope thereof.

Read-outs that look alike come from different tables or passages of the source.

Sequence of recombinant human DHODH (Q02127 whole entry): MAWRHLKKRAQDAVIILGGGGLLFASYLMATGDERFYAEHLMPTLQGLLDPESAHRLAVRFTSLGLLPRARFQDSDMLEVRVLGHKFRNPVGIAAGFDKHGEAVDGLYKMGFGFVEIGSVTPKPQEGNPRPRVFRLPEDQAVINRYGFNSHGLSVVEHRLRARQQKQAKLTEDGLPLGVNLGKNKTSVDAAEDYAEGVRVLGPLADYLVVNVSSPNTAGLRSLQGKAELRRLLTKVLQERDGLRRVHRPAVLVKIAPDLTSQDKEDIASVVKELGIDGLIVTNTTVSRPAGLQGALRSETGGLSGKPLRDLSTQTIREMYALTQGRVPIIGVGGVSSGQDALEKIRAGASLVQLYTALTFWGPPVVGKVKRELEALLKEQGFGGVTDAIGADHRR

For the molecule `COc1ccc(OC)c(COc2ccc(O)c(C(=O)O)c2)c1` [5-(2,5-dimethoxy-benzyloxy)-2-hydroxy-benzoic acid], the “DHODH inhibition (in words)” value at recombinant human DHODH is “inactive”.

Regarding `CCCNc1ccccc1Sc1ccc(NC(=O)CC)c(C(=O)O)c1` [Compound AA, 2-propionylamino-5-(2-propylamino-phenylsulfanyl)-benzoic acid], the IC50 in data set [1] (Homo sapiens, 72 h) came to 40 nM. As to `CCCN(CCC)c1ccccc1Oc1ccc(NC(=O)CC)c(C(=O)O)c1` [Compound AB, 5-(2-dipropylamino-phenoxy)-2-propionylamino-benzioc acid], the IC50 in data set [1] came to 150 nM. In the case of `CCC(=O)Nc1ccc(OCc2ccccc2OC(F)(F)F)cc1C(=O)O` [Compound AC, 2-propionylamino-5-(2-trifluoromethoxy-benzyloxy)-benzoic acid], the IC50 in data set [1] (Homo sapiens, 72 h) came out at 300 nM. Consider `CCC(=O)Nc1ccc(COc2ccccc2OC(F)(F)F)cc1C(=O)O` [Compound AD, 2-propionylamino-5-(2-trifluoromethoxy-phenoxymethyl)-benzoic acid], for which the IC50 in data set [1] (Homo sapiens, 72 h) was 240 nM. As to `CCC(=O)Nc1ccc(Sc2ccccc2OC(F)(F)F)cc1C(=O)O` [Compound AE, 2-propionylamino-5-(2-trifluoromethoxy-phenylsulfanyl)-benzioc acid], the IC50 in data set [1] came to 390 nM. As for `CC(=O)Nc1ccc(CCc2ccccc2)cc1C(=O)O` [Compound AF, 2-Acetylamino-5-phenethyl-benzoic acid, reference compound], in data set [2], the clearance was 16.2 mL/min/kg and the half-life was 0.29 h. As for `CCC(=O)Nc1ccc(/C=C/c2ccccc2)cc1C(=O)O` [Compound AG, 2-Propionylamino-5-[(E)-styryl]-benzoic acid], in data set [2], the clearance is 2 mL/min/kg and the half-life is 10 h. For `CCC(=O)Nc1ccc(Cc2ccccc2)cc1C(=O)O` [Compound AH, 5-Benzyl-2-propionylamino-benzoic acid], in that order: 0.3 mL/min/kg and 6.6 h. In data set [2], `COc1ccc(OC)c(COc2ccc(NC(C)=O)c(C(=O)O)c2)c1` [Compound G, 2-acetylamino-5-(2,5-dimethoxy-benzyloxy)-benzoic acid, reference compound] gave a clearance of 11.8 mL/min/kg and a half-life of 0.3 h. In addition, in data set [1] (Homo sapiens, 72 h), the IC50 is 6200 nM. Besides, in data set [1], the “inhibitory effect on T-cell proliferation (in words)” value is “only a weak inhibitory effect”. For the molecule `COc1ccc(OC)c(CCc2ccc(NC(C)=O)c(C(=O)O)c2)c1` [Compound H, 2-Acetylamino-5-[2-(2,5dimethoxy-phenyl)-ethyl]-benzoic acid, reference compound], in data set [1] (Homo sapiens, 72 h), the IC50 is 12000 nM. In addition, the “inhibitory effect on T-cell proliferation (in words)” value in data set [1] is “very weak inhibitory effect”. For `CCC(=O)Nc1ccc(CCc2ccccc2C(F)(F)F)cc1C(=O)O` [Compound J, 2-propionylamino-5-[2-(2-trifluoromethyl-phenyl)-ethyl]-benzoic acid, reference compound], in that order: 2900 nM and “weak antiproliferative effect”. In data set [2], `CCC(=O)Nc1ccc(NCc2ccccc2C(F)(F)F)cc1C(=O)O` [Compound K, 2-propionylamino-5-(2-trifluoromethyl-benzylamino)-benzoic acid] showed a clearance of 1.17 mL/min/kg and a half-life of 2.2 h. Moreover, in data set [1] (Homo sapiens, 72 h), the IC50 is 790 nM.

In data set [2], `CCC(=O)Nc1ccc(Oc2ccccc2C(F)(F)F)cc1C(=O)O` [Compound L, 2-propionylamino-5-(2-trifluoromethyl-phenoxy)-benzoic acid] gave a clearance of 0.25 mL/min/kg and a half-life of 3.1 h. Besides, in data set [1] (Homo sapiens, 72 h), the IC50 worked out at 780 nM.

In the case of `CCC(=O)Nc1ccc(OCc2ccccc2C(F)(F)F)cc1C(=O)O` [Compound M, 2-propionylamino-5-(2-trifluoromethyl-benzyloxy)-benzoic acid], in data set [2], the clearance is 1.83 mL/min/kg and the half-life is 4.9 h. Also, the IC50 in data set [1] (Homo sapiens, 72 h) was determined as 330 nM. In data set [2], `CCC(=O)Nc1ccc(COc2ccccc2C(F)(F)F)cc1C(=O)O` [Compound N, 2-propionylamino-5-(2-trifluoromethyl-phenoxymethyl)-benzoic acid] gave a clearance of 2.33 mL/min/kg and a half-life of 1.5 h. For the same molecule, the IC50 in data set [1] (Homo sapiens, 72 h) is 520 nM. In data set [2], `CCC(=O)Nc1ccc(Sc2ccccc2C(F)(F)F)cc1C(=O)O` [Compound O, 2-propionylamino-5-(2-trifluoromethyl-phenylsulfanyl)-benzoic acid] had a clearance of 0.55 mL/min/kg and a half-life of 4.6 h. For the same molecule, in data set [1] (Homo sapiens, 72 h), the IC50 stood at 250 nM. Take `CCC(=O)Nc1ccc(CSc2ccccc2C(F)(F)F)cc1C(=O)O` [Compound P, 2-propionylamino-5-(2-trifluoromethyl-phenylsulfanylmethyl)-benzoic acid]: the IC50 in data set [1] (Homo sapiens, 72 h) was found to be 210 nM. For `CCC(=O)Nc1ccc(/C=C/c2ccccc2C(F)(F)F)cc1C(=O)O` [Compound Q], the IC50 in data set [1] was determined as 110 nM.

In the case of `CCC(=O)Nc1ccc(/C=C/c2cccc(C(F)(F)F)c2)cc1C(=O)O` [Compound R], the IC50 in data set [1] was determined as 450 nM. For `CCC(=O)Nc1ccc(Oc2cc(C(F)(F)F)cc(C(F)(F)F)c2)cc1C(=O)O` [Compound S, 5-(3,5-bis-trifluoromethyl-phenoxy)-2-propionylamino-benzoic acid], the IC50 in data set [1] (Homo sapiens, 72 h) came out at 140 nM. With `CCCNc1ccccc1Oc1ccc(NC(=O)CC)c(C(=O)O)c1` [Compound T, 2-propionylamino-5-(2-propylamino-phenoxy)-benzoic acid], the IC50 in data set [1] (Homo sapiens, 72 h) was determined as 240 nM.

In the case of `CCCNc1ccccc1COc1ccc(NC(=O)CC)c(C(=O)O)c1` [Compound U, 2-propionylamino-5-(2-propylamino-benzyloxy)-benzoic acid], in data set [1] (Homo sapiens, 72 h), the IC50 amounted to 110 nM.

Usually clearance stands for a measure of how efficiently the substance is removed, as volume per time. Low values mean inefficient removal, high ones efficient removal. A word on the half-life: it is how long it takes for the measured level to halve. Low values mean fast loss, high ones slow loss.

(Values after patent US7074831B2, “Compounds, methods for their preparation and use thereof” (Active Biotech AB, priority 2004, dated 2006).)
